Assays:
Assay in all cases: in vitro activity-based HDAC assay
Format in all cases: biochemical
HDAC4 = HDAC4 (Homo sapiens, UniProt P56524); details: human HDAC isoform panel, Table 1
Method: (§1) The exemplary compounds of Formula I and structurally related compounds were synthesized to assess their structure-activity relationship. […] The IC50 values for each exemplary compound were used to calculate the selectivity of the exemplary compounds for Formula I to HDAC6. The selectivity of each exemplary compound for HDAC6 was determined from examining the potency of HDAC6 in relation to the highest binding affinity of the other HDAC isoforms tested.

HDAC8 = HDAC8 (Homo sapiens, UniProt Q9BY41); details: human HDAC isoform panel, Table 1
Sequence of HDAC8 (Q9BY41 whole entry, canonical isoform): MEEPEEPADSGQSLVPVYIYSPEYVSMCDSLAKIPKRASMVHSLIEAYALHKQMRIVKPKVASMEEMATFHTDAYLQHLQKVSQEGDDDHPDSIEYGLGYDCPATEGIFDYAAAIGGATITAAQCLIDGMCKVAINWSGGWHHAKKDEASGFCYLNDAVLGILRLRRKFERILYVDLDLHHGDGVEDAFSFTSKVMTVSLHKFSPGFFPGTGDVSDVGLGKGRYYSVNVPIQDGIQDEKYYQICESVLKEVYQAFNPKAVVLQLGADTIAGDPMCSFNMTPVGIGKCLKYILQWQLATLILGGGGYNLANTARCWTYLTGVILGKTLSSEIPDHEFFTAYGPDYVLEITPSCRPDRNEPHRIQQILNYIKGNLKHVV
Method: as §1

HDAC6 = molecular target: T1, HDAC6 (Homo sapiens, UniProt Q9UBN7); details: human HDAC isoform panel, Table 1; read-out: IC50 HDAC6
T1 sequence (Q9UBN7 1-1215): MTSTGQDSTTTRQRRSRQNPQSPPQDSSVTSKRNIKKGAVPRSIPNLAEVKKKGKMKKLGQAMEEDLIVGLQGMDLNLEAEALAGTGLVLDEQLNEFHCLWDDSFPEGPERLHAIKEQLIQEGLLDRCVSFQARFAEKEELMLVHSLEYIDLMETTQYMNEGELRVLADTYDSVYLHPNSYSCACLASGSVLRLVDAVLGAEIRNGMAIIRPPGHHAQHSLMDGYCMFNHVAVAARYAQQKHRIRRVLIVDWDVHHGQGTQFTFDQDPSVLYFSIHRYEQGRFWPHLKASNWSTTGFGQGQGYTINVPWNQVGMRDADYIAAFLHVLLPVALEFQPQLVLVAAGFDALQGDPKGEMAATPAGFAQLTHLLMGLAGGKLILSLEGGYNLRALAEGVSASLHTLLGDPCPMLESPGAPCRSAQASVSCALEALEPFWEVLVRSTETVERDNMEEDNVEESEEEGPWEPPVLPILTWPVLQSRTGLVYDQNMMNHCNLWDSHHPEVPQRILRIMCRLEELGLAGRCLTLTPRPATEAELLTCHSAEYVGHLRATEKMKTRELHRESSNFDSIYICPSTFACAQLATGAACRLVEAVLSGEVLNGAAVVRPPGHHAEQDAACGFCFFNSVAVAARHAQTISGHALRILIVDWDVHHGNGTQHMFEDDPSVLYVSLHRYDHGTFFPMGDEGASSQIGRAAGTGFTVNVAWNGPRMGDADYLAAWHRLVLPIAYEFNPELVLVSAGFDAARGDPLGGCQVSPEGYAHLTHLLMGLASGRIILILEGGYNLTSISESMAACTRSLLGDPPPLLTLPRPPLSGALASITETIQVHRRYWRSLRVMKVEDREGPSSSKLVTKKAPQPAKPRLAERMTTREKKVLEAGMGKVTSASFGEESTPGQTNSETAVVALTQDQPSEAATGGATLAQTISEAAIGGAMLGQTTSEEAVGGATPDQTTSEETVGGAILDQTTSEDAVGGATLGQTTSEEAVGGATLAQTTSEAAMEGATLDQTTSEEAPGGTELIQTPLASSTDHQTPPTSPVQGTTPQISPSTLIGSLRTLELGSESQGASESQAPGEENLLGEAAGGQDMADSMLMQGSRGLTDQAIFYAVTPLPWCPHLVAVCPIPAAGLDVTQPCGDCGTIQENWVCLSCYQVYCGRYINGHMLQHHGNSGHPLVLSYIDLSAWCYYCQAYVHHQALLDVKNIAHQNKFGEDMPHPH
Method: as §1

HDAC7 = molecular target: T2, HDAC7 (Homo sapiens, UniProt Q8WUI4); details: human HDAC isoform panel, Table 1
T2 sequence (Q8WUI4 1-952): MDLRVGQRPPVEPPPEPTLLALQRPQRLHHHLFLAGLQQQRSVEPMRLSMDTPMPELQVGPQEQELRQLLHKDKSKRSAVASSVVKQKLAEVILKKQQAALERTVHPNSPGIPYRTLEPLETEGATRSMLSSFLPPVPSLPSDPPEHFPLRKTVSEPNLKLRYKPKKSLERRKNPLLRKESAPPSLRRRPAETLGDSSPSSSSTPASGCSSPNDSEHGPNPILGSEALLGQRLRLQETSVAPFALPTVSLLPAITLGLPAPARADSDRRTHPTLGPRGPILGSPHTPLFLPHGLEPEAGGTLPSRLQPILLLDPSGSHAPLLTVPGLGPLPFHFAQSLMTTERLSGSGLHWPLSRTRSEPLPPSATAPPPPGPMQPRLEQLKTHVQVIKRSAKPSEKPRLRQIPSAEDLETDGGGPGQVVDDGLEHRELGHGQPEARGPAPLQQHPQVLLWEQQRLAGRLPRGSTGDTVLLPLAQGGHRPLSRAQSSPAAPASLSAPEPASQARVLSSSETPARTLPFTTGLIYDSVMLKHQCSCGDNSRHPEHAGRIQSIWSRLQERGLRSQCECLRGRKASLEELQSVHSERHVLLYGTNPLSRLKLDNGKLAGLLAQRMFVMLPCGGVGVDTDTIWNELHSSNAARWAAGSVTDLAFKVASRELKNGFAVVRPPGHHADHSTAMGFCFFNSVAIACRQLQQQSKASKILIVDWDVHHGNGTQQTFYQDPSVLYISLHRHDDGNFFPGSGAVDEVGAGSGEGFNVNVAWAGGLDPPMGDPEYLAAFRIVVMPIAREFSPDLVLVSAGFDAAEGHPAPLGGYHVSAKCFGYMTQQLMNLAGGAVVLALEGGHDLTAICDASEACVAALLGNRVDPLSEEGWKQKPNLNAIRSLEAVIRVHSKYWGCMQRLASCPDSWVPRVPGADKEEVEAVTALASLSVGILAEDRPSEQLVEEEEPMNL
Method: as §1

HDAC11 = HDAC11 (Homo sapiens, UniProt Q96DB2); details: human HDAC isoform panel, Table 1
Sequence of HDAC11 (Q96DB2 whole entry, canonical isoform): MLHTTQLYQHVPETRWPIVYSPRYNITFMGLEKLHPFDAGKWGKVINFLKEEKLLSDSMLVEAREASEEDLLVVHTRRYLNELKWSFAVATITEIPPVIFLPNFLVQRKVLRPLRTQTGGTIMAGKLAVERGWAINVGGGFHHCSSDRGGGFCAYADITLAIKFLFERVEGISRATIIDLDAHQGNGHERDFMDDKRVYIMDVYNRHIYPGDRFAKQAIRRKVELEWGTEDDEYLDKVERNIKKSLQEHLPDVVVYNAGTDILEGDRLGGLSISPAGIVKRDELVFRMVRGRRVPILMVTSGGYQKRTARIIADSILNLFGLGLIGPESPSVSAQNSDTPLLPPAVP
Method: as §1

Sequence of HDAC4 (P56524 whole entry, canonical isoform): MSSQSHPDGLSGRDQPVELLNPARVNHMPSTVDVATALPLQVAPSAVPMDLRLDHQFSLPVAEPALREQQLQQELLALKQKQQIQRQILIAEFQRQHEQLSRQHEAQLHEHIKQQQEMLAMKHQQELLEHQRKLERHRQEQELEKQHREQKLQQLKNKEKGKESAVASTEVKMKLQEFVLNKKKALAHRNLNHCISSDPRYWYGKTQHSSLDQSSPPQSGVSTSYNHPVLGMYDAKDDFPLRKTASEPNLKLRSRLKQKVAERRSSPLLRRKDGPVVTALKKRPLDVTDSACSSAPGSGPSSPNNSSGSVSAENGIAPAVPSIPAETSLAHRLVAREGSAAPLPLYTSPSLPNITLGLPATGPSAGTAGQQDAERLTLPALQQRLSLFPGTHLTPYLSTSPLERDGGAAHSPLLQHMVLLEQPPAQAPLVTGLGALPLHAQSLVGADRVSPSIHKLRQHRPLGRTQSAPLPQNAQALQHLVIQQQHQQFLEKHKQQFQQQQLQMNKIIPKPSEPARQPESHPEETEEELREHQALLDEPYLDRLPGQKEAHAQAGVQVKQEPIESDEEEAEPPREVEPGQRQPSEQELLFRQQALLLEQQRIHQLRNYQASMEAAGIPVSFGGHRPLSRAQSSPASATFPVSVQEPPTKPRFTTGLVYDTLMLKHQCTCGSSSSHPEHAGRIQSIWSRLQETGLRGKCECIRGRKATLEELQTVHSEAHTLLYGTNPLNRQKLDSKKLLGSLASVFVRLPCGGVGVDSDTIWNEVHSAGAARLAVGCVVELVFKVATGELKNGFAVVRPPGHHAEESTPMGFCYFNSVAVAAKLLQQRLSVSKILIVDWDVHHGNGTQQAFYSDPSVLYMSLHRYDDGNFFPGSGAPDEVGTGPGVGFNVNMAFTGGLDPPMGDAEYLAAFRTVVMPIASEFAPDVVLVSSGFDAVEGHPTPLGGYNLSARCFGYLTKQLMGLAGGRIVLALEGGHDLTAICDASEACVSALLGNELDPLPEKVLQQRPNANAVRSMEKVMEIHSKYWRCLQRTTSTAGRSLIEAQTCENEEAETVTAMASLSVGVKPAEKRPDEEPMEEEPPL

Structure (SMILES) | IC50 (HDAC4) | IC50 (HDAC8) | IC50 (HDAC6) | IC50 (HDAC7) | IC50 (HDAC11)
O=C(NO)c1ccc(CN(C2CC2)S(=O)(=O)c2cc(F)c(F)c(F)c2F)cc1 [Compound I-13, 4-((N-cyclopropyl-2,3,4,5-tetrafluorophenylsulfonamido)methyl)-N-hydroxybenzamide] | > 1000 nM | 334 nM | 9 nM | > 1000 nM | > 1000 nM
O=C(NO)c1ccc(CN(Cc2cccnc2)S(=O)(=O)c2cc(F)c(F)c(F)c2F)cc1 [Compound I-18, N-hydroxy-4-((2,3,4,5-tetrafluoro-N-(pyridin-3-ylmethyl)phenylsulfonamido)methyl)benzamide] | > 1000 nM | 316 nM | 2 nM | > 1000 nM | > 1000 nM

Source: patent publication US20220169598A1, “HALOGENATED PHENYLSULFONAMIDE HYDROXAMIC ACID COMPOUNDS, COMPOSITIONS AND USES THEREOF AS SELECTIVE HDAC6 INHIBITORS” (2681603 ONTARIO INC., priority 2019, published 2022)
